Measurements published in PMC8776337, “Peptides Derived from Vascular Endothelial Growth Factor B Show Potent Binding to Neuropilin‐1” (Chembiochem, 2021).
Where “and” joins values, the source holds several entries; their conditions need not be identical. Equal entries are not always repeated. Where two headings read alike, the source gives them in different places. Positions of bridges follow the written chain, without caps; N, C: chain ends. Residues, ends and D or L forms follow the SMILES beside them. No end group written: not given here. *: point of attachment. Palmitoyl = CCCCCCCCCCCCCCCC(=O)*; Hpt = not defined here

T1: NRP1‐b1 (Homo sapiens, UniProt O14786)
T1 construct: the immobilized b1 domain of NRP1 (NRP1‐b1); poly-histidine (TEV-cleavable) (cleaved yes); made in house; host or cells: E. coli Rosetta (DE3)
T1 sequence (O14786 275-424 limits assumed): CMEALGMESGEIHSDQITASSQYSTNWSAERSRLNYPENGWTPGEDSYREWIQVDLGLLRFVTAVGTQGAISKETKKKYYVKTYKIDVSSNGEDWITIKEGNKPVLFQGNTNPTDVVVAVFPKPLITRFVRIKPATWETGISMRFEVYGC

T2: b1 domain of neuropilin‐1 (NRP1‐b1) (human, UniProt O14786 273-427)
T2 construct: neuropilin-1, human, b1 domain; also called NRP1‐b1 domain; NRP1 b1 domain; source: E. coli Rosetta (DE3), purified (HisTrap, TEV cleavage, Superdex 75, SP FF ion exchange)
T2 sequence: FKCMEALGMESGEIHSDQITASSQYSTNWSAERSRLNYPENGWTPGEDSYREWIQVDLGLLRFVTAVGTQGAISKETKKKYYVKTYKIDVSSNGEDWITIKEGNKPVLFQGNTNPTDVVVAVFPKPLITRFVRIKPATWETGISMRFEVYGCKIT

B1: MGC0122 (peptide)
peptide: Hpt-DRAATPHHRPQPR
modifications: reading uncertain; also: printed as Hpt‐DRAATPHHRPQPR
notes: VEGF-B186, human, the C-terminal stretch of the proteolytically processed form, ending in arginine; Only the C-terminal QPR is ordered in the crystal structure; also called VEGF‐B derived peptide MGC0122; source: synthetic peptide; bought: Peptide Protein Research (PeptideSynthetics), >95 % purity by HPLC
B2: MGC0123 (peptide)
chain: {6‑heptynoyl}-RCRRRSFLRCQGRGLELNPDTCRCRKLRR
modifications: disulfide (positions not given here); also: cyclised by disulphide, Cys pairing not given here

Columns and labels:
[1] = molecular target: T1, NRP1‐b1; test: SPR binding of peptides to immobilised NRP1-b1; conditions: for Receptor occupancy: immobilised NRP1-b1
Source text: We then designed four additional peptides with added lipid chains (Figures 3 and 4). We investigated the effect of lipidation on the N‐terminus (MGC0171 and MGC0174) and on the side chain of a lysine in close proximity to the C‐terminus (MGC0172 and MGC0173) as shown (Figure 5). For the SPR analysis of the lipidated peptides we fitted data to a two‐state reaction model to account for the nonspecific binding of the palmitoyl side chains. Since the model assumes two binding events it provides two association (k a) and dissociation (k d) rates, and the overall equilibrium dissociation constant is calculated using the equation: KD=KD1(1+KD2), in which KD1 and KD2 are obtained as […]. The inverse of the dissociation rate corresponds to the residence time. […] The lipidated peptides were also tested for inhibition of VEGF‐A165 binding to NRP1 in a cell‐based assay (Figure 8).
Surface plasmon resonance: SPR measurements were performed using either Biacore T200 or Biacore 4000 at a constant temperature of 25 °C. All sensor chips, stock buffers, and immobilisation reagents were purchased from GE Healthcare/Cytvia and were prepared according to the manufacturer's instructions.
Chip preparation: PBS containing 0.05 % surfactant P20 was used as the running buffer during immobilisation. Proteins were immobilised onto a CM5 chip using random amine coupling following a standard procedure using the conditions specified in Table 2. A flow cell upstream of the treated flow cell was used as a reference which allowed removal of non‐specific binding to the chip.
Kinetic measurements of peptides: Peptides were injected over immobilized NRP1‐b1 for 60 s, followed by 120 or 180 s dissociation. The surface was regenerated with 1 M NaCl between injections. The SPR response curves were fit to a binding model to obtain association (ka ) and dissociation (kd ) rates which were then converted into equilibrium dissociation constant (KD ) and residence time. For a 1 : 1 binding model […] and for a two‐state binding model KD=K1(1+K2). Residence time was calculated as 1/kd .

[2] = molecular target: T3, bt‐VEGF‐A165 binding to NRP1 in HUVEC cells (Homo sapiens, UniProt O14786); test: Cell based binding assay, inhibition of bt-VEGF-A165 binding to NRP1; conditions: for IC50: 4 °C, 2 h, streptavidin-horseradish peroxidase detection; for HS (of the inhibition curve of bt‐VEGF‐A165 binding to NRP1): HUVEC cells
T3 construct: expressed in transfected cells
Experimental: A) N‐terminal palmitoyl VEGF‐B167 derived peptide MGC0174. B) Lysine palmitoyl peptide MGC0173. C) N‐terminal palmitoyl VEGF‐A165 derived peptide MGC0171. D) Lysine VEGF‐A165 palmitoyl peptide MGC0172.
Cell based binding assay for bt‐VEGF binding to NRP1‐b1: A flat‐bottomed 96 well plate was coated with 100 μL 10 μg/mL Poly‐D‐lysine (110 μL in 10890 μL PBS) and incubated for 1 hour at R.T. DU145 cells were seeded at a concentration of 20,000 DU145 cells/well in DMEM with 10 % FBS and incubated for 4 hours. Cells were then infected with 0.3 μL per well of adenovirus expressing NRP1 (stock at 1×1012 vp/mL) and incubated for 40 hours. The media was removed followed by washing cells twice in 200 μL of PBS per well. The plate was placed on ice and 50 μL of binding medium was added per well for total binding. Next, 50 μL of 100‐fold excess (100×btVEGF‐A165) of unlabelled‐VEGF (diluted in binding medium) was added per well for non‐specific binding. Peptides (50 μL) at the indicated concentrations were diluted in binding medium and added to specified wells. bt‐VEGF (50 μL of 4 nM; diluted in binding medium) was added per well for both total and non‐specific binding and samples. The plate was incubated at 4 °C for 2 hours. The plate was then placed on ice and the medium was removed followed by gently washing the cells 3 times in 200 μL of PBS per well.
Streptavidin‐horseradish peroxidase (100 μL; dilute to the working concentration specified on the vial label using PBS+1 % BSA=1 : 200) was added to each well. The plate was sealed and incubated for 30 minutes at room temperature. Three more washes with 200 μL PBS were done. Then, 100 μL of substrate solution was added to each well (protected from light). Colour Reagent A and B were mixed together in equal volumes within 15 minutes of use. The plate was sealed and incubated for 20 minutes at room temperature. Stop solution (50 μL) was added to each well ensuring even mixing. The plate was read using Tecan Genios plate reader using a 450 nm cut‐off filter and also with a reference 595 nm cut‐off filter. Nonspecific binding was determined in the absence of NP‐1 coated on the microplate.

[3] = Peptide stability in mouse plasma; format: in vitro ADME; conditions: mouse plasma pH 7.4, 37 °C, LC-MS/MS, triplicate (n=1); for Stability in mouse plasma (in words): 10 μM, 0.24 % DMSO, 0, 5, 15, 30, 60, 120 min
Experimental: Figure 9 Stability of VEGF‐B167 lipidated peptides in mouse plasma determined by MSMS analysis. The stability of the peptides is shown relative to the control eucatropine. Samples were analysed in triplicate (n=1).
Peptide stability in mouse plasma: Mouse plasma stability tests were performed by Cyprotex. In brief, peptides were incubated with mouse plasma (adjusted for pH 7.4, 37 °C) to a final concentration of 10 μM and incubation volume of 500 μL (0.24 % DMSO). After the incubation period (0, 5, 15, 30, 60, and 120 min), the reactions were stopped by transferring 50 μL of incubate to 150 μL acetonitrile containing internal standard. Plasma proteins were precipitated out by centrifuging at 3,000 rpm for 45 min at 4 °C. The supernatant was diluted 1 : 1 with water and analysed by LC‐MS/MS.

[4] = molecular target: T2, b1 domain of neuropilin‐1 (NRP1‐b1); test: SPR; NRP1-b1 immobilised on a CM5 chip by random amine coupling; peptides injected for 60 s, 120 or 180 s dissociation; 25 °C; regeneration with 1 M NaCl; kinetic fit, 1:1 model (MGC0122, MGC0123, MGC0124) or two-state model (MGC0171, MGC0172, MGC0173, MGC0174); conditions: both partners purified
[5] = SPR, immobilised NRP1-b1, 25 °C, two-state model, lipidated peptides, read-out: Second residence time calculated from two‐state model (converted)
[6] = read-out: Residence time (1/kd)
[7] = IC50, cell‐based activity (HUVECs), inhibition of bt‐VEGF‐A165 binding to NRP1, bt-VEGF-A165 4 nM

T3 sequence (O14786 22-923): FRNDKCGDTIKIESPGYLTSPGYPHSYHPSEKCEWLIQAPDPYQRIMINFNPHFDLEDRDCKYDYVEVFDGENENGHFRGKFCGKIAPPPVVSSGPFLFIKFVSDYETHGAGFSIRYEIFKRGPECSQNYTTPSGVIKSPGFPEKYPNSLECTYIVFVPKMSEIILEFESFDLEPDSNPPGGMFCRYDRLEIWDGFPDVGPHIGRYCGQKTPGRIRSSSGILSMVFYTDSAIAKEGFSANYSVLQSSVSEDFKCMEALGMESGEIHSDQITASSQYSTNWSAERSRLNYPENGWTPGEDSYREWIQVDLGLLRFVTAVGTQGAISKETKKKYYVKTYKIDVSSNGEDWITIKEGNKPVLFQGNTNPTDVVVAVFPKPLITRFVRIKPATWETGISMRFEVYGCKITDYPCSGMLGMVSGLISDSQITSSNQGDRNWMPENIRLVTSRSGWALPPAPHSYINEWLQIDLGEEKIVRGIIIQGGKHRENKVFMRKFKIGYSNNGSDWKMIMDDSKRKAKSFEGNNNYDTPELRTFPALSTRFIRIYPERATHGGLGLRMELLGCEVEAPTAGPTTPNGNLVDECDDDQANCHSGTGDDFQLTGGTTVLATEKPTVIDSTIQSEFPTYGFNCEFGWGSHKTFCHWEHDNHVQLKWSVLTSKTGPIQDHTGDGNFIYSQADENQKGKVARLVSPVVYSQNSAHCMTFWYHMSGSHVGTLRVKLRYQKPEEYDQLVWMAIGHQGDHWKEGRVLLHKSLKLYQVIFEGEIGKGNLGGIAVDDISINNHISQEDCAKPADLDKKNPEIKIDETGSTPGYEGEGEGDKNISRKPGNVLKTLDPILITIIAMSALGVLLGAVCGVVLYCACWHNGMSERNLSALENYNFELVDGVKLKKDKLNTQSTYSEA

Row | Molecule | Receptor occupancy ([1]; SPR) | residence time [1, 5] | HS (of the inhibition curve of bt‐VEGF‐A165 binding to NRP1) ([2]; bt-VEGF-A165 4 nM) | Kd [1] | residence time [1, 6] | IC50 [2, 7] | Stability in mouse plasma (in words) [3] | Kd [4] | also measured
1 | CCCCCCCCCCCCCCCC(=O)NCCCC[C@H](NC(=O)[C@H](CC(=O)O)NC(=O)[C@@H]1CSSC[C@@H]2NC(=O)[C@H](CCCNC(=N)N)NC(=O)[C@H](CO)NC(=O)[C@H](CC(=O)O)NC(=O)[C@H]([C@@H](C)O)NC(=O)[C@H](CC(N)=O)NC(=O)[C@H](CCCCN)NC(=O)[C@@H](NC(=O)[C@H](CO)NC(C)=O)CSSC[C@H](NC(=O)[C@H]([C@@H](C)O)NC(=O)[C@H](CCCNC(=N)N)NC(=O)[C@H](CCC(=O)O)NC(=O)[C@H](CC(N)=O)NC(=O)[C@H](CC(C)C)NC(=O)[C@H](CCC(=O)O)NC(=O)[C@H](CC(C)C)NC(=O)[C@H](CCC(N)=O)NC(=O)[C@H](CCCNC(=N)N)NC(=O)[C@H](C)NC(=O)[C@H](CCCCN)NC2=O)C(=O)N[C@@H](CCCNC(=N)N)C(=O)N1)C(=O)N1CCC[C@H]1C(=O)N[C@@H](CCCNC(=N)N)C(=O)N[C@@H](CCCNC(=N)N)C(=O)O [MGC0172] (Ac-SCKNTDSRCKARQLELNERTCRCDK(Palmitoyl)PRR-OH; disulfide 2-21, 9-23) | 22±1% | 1.99 min | 1.9 |  |  |  |  |  | residence time ([1]; SPR, immobilised NRP1-b1, 25 °C, 1:1 model, or first residence time of the two-state model, read-out: Residence time (1/kd) (converted)): 0.123 min; Kd ([1]; SPR, peptide injected 60 s over NRP1-b1 immobilised on CM5 chip, 25 °C, 1:1 model for MGC0122/0123/0124, two-state model for lipidated peptides, read-out: KD, SPR binding to NRP1‐b1): 1220 ± 250 nM; IC50 ([2]; bt-VEGF-A165 4 nM, read-out: IC50, cell‐based activity (HUVECs), inhibition of bt‐VEGF‐A165 binding to NRP1): 10400 nM
2 | CCCCCCCCCCCCCCCC(=O)NCCCC[C@H](NC(=O)[C@H](CCCNC(=N)N)NC(=O)[C@@H]1CSSC[C@@H]2NC(=O)[C@H](CCCNC(=N)N)NC(=O)[C@H](CC(C)C)NC(=O)[C@H](Cc3ccccc3)NC(=O)[C@H](CO)NC(=O)[C@H](CCCNC(=N)N)NC(=O)[C@H](CCCNC(=N)N)NC(=O)[C@H](CCCNC(=N)N)NC(=O)[C@@H](NC(=O)[C@H](CCCNC(=N)N)NC(C)=O)CSSC[C@H](NC(=O)[C@H]([C@@H](C)O)NC(=O)[C@H](CC(=O)O)NC(=O)[C@@H]3CCCN3C(=O)[C@H](CC(N)=O)NC(=O)[C@H](CC(C)C)NC(=O)[C@H](CCC(=O)O)NC(=O)[C@H](CC(C)C)NC(=O)CNC(=O)[C@H](CCCNC(=N)N)NC(=O)CNC(=O)[C@H](CCC(N)=O)NC2=O)C(=O)N[C@@H](CCCNC(=N)N)C(=O)N1)C(=O)N[C@@H](CC(C)C)C(=O)N[C@@H](CCCNC(=N)N)C(=O)N[C@@H](CCCNC(=N)N)C(=O)O [MGC0173] (Ac-RCRRRSFLRCQGRGLELNPDTCRCRK(Palmitoyl)LRR-OH; disulfide 2-22, 10-24) | 10±1% | 2.69 min | 1.8 | 130 ± 30 nM | 0.0767 min | 2000 nM | maintained much better levels throughout the course of the experiment |  | half-life at 10 μM ([3]; 0.24 % DMSO, 0-120 min): 51 min
3 | CCCCCCCCCCCCCCCC(=O)N[C@@H](CCCNC(=N)N)C(=O)N[C@H]1CSSC[C@@H]2NC(=O)[C@H]([C@@H](C)O)NC(=O)[C@H](CC(=O)O)NC(=O)[C@@H]3CCCN3C(=O)[C@H](CC(N)=O)NC(=O)[C@H](CC(C)C)NC(=O)[C@H](CCC(=O)O)NC(=O)[C@H](CC(C)C)NC(=O)CNC(=O)[C@H](CCCNC(=N)N)NC(=O)CNC(=O)[C@H](CCC(N)=O)NC(=O)[C@H](CSSC[C@@H](C(=O)N[C@@H](CCCNC(=N)N)C(=O)N[C@@H](CCCCN)C(=O)N[C@@H](CC(C)C)C(=O)N[C@@H](CCCNC(=N)N)C(=O)N[C@@H](CCCNC(=N)N)C(=O)O)NC(=O)[C@H](CCCNC(=N)N)NC2=O)NC(=O)[C@H](CCCNC(=N)N)NC(=O)[C@H](CC(C)C)NC(=O)[C@H](Cc2ccccc2)NC(=O)[C@H](CO)NC(=O)[C@H](CCCNC(=N)N)NC(=O)[C@H](CCCNC(=N)N)NC(=O)[C@H](CCCNC(=N)N)NC1=O [MGC0174] (Palmitoyl-RCRRRSFLRCQGRGLELNPDTCRCRKLRR-OH; disulfide 2-22, 10-24) | 47±3% | 4.46 min | 1.9 | 330 ± 50 nM | 0.248 min | 319 nM and 300 nM | quickly degraded to low levels after 15 min |  | 
4 | CC1CC(OC(=O)C(O)c2ccccc2)CC(C)(C)N1C (stereo not drawn) [eucatropine, reference compound] |  |  |  |  |  |  | degraded within literature parameters |  | 
5 | B1 |  |  |  |  |  |  |  | 9550 ± 170 nM | 
6 | B2 |  |  |  |  |  |  |  | 390 ± 90 nM | 
